In patent US9828386B2 (priority 2013, dated 2017):
Read-outs that look alike come from different tables or passages of the source.

What was measured:
Experiment in all cases: cells
Format in all cases: cell-based
Hela cell line = details: read-out: IC50 (μM) Hela
Description: (§1) Test of compounds of embodiment of the present invention on inhibiting tumor cell activity
(§2) 3, cell lines: A549, BGC823, Hela cell line and normal human hepatocytes which are available from Wu Han boster Co., Ltd.;
(§3) A549, BGC823, Hela cell line and normal human hepatocytes in logarithmic growth phase are subjected to 1000 rpm centrifugation for 5 min, supernatant is then discarded, moderate medium is suspended, the cell concentration is adjusted to 3.5×10^4/well, the cells were seeded in 96-wells culture plate, and following experimental groups are set:
(§4) a negative control group; 35 test groups with same concentration (ie: groups of Compound (1) to Compound (35)); three control groups: groups of podophyllotoxin, 4′-demethylepipodophyllotoxin and etoposide.
(§5) Taking RPMI1640 containing 10% of calf serum as nutrient solution, 0.10 mL of cells per well is incubated under conditions of 37° C., 5% CO2 and saturated humidity for 24 h to nearly be covered, then the nutrient solution is discarded. […] 100 μl of DMSO is added to each well, then vibrated at 37° C. by shaker table for 30 min, then measuring absorbance (OD) at 492 nm, calculating MTT ratio=OD value of drug group/OD value of the negative control group.

A549 cell line = details: read-out: IC50 (μM) A549
Description: as §1, §2, §3, §4, §5

BGC823 cell line = details: read-out: IC50 (μM) BGC823
Description: as §1, §2, §3, §4, §5

[1] = Hela cells, MTT, 48 h cultivation
[2] = A549 cells, MTT, 48 h cultivation
[3] = BGC823 cells, MTT, 48 h cultivation

Compound	IC50 (Hela cell line; [1])	IC50 (A549 cell line; [2])	IC50 (BGC823 cell line; [3])	IC50 (Hela cell line; Homo sapiens, HeLa, 48 h)	IC50 (A549 cell line; Homo sapiens, A549, 48 h)	IC50 (BGC823 cell line; Homo sapiens, BGC-823, 48 h)	IC50 (Hela cell line; Homo sapiens, Hela cells, MTT, 48 h cultivation)
COc1ccc(S(=O)(=O)Nc2nnc(SC3c4cc5c(cc4C(c4cc(OC)c(OC)c(OC)c4)C4C(=O)OCC34)OCO5)s2)cc1 (stereo not drawn) [Compound 18, 4-S-[2-N-(4-methoxy-benzenesulfonamide-)-1,3,4-thiadiazole-5-]-4-deoxy-podophyllotoxin]	4.14 ± 0.47 µM	4.05 ± 0.15 µM	1.27 ± 0.13 µM	–	–	–	–
COc1cc(C2c3cc4c(cc3C(Sc3ccccn3)C3COC(=O)C23)OCO4)cc(OC)c1O (stereo not drawn) [Compound 22, 4-S-(pyridin-2)-4-deoxy-4′-demethylepipodophyllotoxin]	2.31 ± 0.31 µM	1.01 ± 0.38 µM	0.27 ± 0.03 µM	–	–	–	–
COc1cc(C2c3cc4c(cc3C(Sc3nc5ccccc5o3)C3COC(=O)C23)OCO4)cc(OC)c1OC (stereo not drawn) [Compound 14, 4-S-(benzoxazole-2)-4-deoxy-podophyllotoxin]	0.92 ± 0.08 µM	1.01 ± 0.14 µM	0.21 ± 0.02 µM	–	–	–	–
COc1cc(C2c3cc4c(cc3C(O)C3COC(=O)C23)OCO4)cc(OC)c1O (stereo not shown) [4′-demethylepipodophyllotoxins, 4′-demethylepipodophyllotoxin, reference compound]	49.32 ± 0.38 µM	52.9 ± 0.85 µM	63.09 ± 0.49 µM	–	–	–	–
COc1cc(C2c3cc4c(cc3C(Sc3nnc(C)s3)C3COC(=O)C23)OCO4)cc(OC)c1OC (stereo not drawn) [Compound 4, 4-S-(5-methyl-1,3,4-thiadiazol-2)-4-deoxy-podophyllotoxin]	2.18 ± 0.07 µM	4.11 ± 0.93 µM	4.01 ± 0.02 µM	–	–	–	–
COc1cc(C2c3cc4c(cc3C(Sc3nnc(N)s3)C3COC(=O)C23)OCO4)cc(OC)c1OC (stereo not drawn) [Compound 3, 4-S-(2-amino-1,3,4-thiadiazole-5)-4-deoxy-podophyllotoxin]	0.06 ± 0.01 µM	1.98 ± 2.54 µM	0.71 ± 0.03 µM	–	–	–	–
COc1cc(C2c3cc4c(cc3C(Sc3n[nH]c(NS(=O)(=O)c5ccc(C)cc5)n3)C3COC(=O)C23)OCO4)cc(OC)c1O (stereo not drawn) [Compound 32, 4-S-[3-N-(4-methyl-benzenesulfonamide-)-1,2,4-triazole-5-]-4-deoxy-4′-demethylepipodophyllotoxin]	0.53 ± 0.17 µM	1.67 ± 0.28 µM	0.67 ± 0.22 µM	–	–	–	–
COc1cc(C2c3cc4c(cc3C(Sc3n[nH]c(C)n3)C3COC(=O)C23)OCO4)cc(OC)c1OC (stereo not drawn) [Compound 2, 4-S-(5-methyl-1,2,4-triazole-3)-4-deoxy-podophyllotoxin]	0.15 ± 0.03 µM	1.01 ± 0.28 µM	0.27 ± 0.03 µM	–	–	–	–
COc1cc(C2c3cc4c(cc3C(Sc3nc(C)cc(C)n3)C3COC(=O)C23)OCO4)cc(OC)c1OC (stereo not drawn) [Compound 11, 4-S-(4,6-dimethyl-pyrimidine-2)-4-deoxy-podophyllotoxin]	0.11 ± 0.01 µM	3.31 ± 0.26 µM	1.99 ± 0.34 µM	–	–	–	–
COc1cc(C2c3cc4c(cc3C(Sc3nc5ccccc5s3)C3COC(=O)C23)OCO4)cc(OC)c1O (stereo not drawn) [Compound 29, 4-S-(benzothiazol-2)-4-deoxy-4′-demethylepipodophyllotoxin]	4.57 ± 0.16 µM	0.85 ± 0.93 µM	1.37 ± 0.43 µM	–	–	–	–
COc1cc(C2c3cc4c(cc3C(Sc3nc5ccccc5s3)C3COC(=O)C23)OCO4)cc(OC)c1OC (stereo not drawn) [Compound 12, 4-S-(benzothiazol-2)-4-deoxy-podophyllotoxin]	0.6 ± 0.39 µM	3.85 ± 0.47 µM	0.31 ± 0.34 µM	–	–	–	–
COc1cc(C2c3cc4c(cc3C(Sc3nc5ccccc5[nH]3)C3COC(=O)C23)OCO4)cc(OC)c1OC (stereo not drawn) [Compound 13, 4-S-(benzimidazol-2)-4-deoxy-podophyllotoxin]	3.1 ± 0.16 µM	6.76 ± 4.31 µM	2.32 ± 0.01 µM	–	–	–	–
COc1cc(C2c3cc4c(cc3C(Sc3ccncc3)C3COC(=O)C23)OCO4)cc(OC)c1O (stereo not drawn) [Compound 25, 4-S-(pyridin-4)-4-deoxy-4′-demethylepipodophyllotoxin]	0.73 ± 0.05 µM	2.66 ± 0.27 µM	4.76 ± 0.12 µM	–	–	–	–
COc1cc(C2c3cc4c(cc3C(Sc3cccc(C)n3)C3COC(=O)C23)OCO4)cc(OC)c1O (stereo not drawn) [Compound 24, 4-S-(6-methyl-pyridin-2)-4-deoxy-4′-demethylepipodophyllotoxin]	7.18 ± 0.07 µM	1.11 ± 0.94 µM	4.01 ± 0.02 µM	–	–	–	–
COc1ccc(S(=O)(=O)Nc2nc(SC3c4cc5c(cc4C(c4cc(OC)c(O)c(OC)c4)C4C(=O)OCC34)OCO5)n[nH]2)cc1 (stereo not drawn) [Compound 33, 4-S-[3-N-(4-methoxy-benzenesulfonamide-)-1,2,4-triazole-5-]-4-deoxy-4′-demethylepipodophyllotoxin]	1.56 ± 0.88 µM	1.37 ± 2.15 µM	1.27 ± 0.53 µM	–	–	–	–
COc1cc([C@@H]2c3cc4c(cc3[C@H](O)[C@H]3COC(=O)[C@H]23)OCO4)cc(OC)c1OC [podophyllotoxin, reference compound]	–	–	–	55.53 ± 0.24 µM	67.18 ± 0.24 µM	75.81 ± 0.73 µM	–
COc1cc(C2c3cc4c(cc3C(Sc3ncccn3)C3COC(=O)C23)OCO4)cc(OC)c1O (stereo not drawn) [Compound 26, 4-S-(pyrimidine-2)-4-deoxy-4′-demethylepipodophyllotoxin]	0.25 ± 0.32 µM	4.28 ± 0.11 µM	0.51 ± 0.53 µM	–	–	–	–
COc1cc(C2c3cc4c(cc3C(Sc3ccncc3)C3COC(=O)C23)OCO4)cc(OC)c1OC (stereo not drawn) [Compound 8, 4-S-(pyridin-4)-4-deoxy-podophyllotoxin]	3.85 ± 0.14 µM	8.12 ± 0.09 µM	1.52 ± 0.11 µM	–	–	–	–
COc1cc(C2c3cc4c(cc3C(Sc3nc(N)n[nH]3)C3COC(=O)C23)OCO4)cc(OC)c1O (stereo not drawn) [Compound 19, 4-S-(3-amino-1,2,4-triazole-5)-4-deoxy-4′-demethylepipodophyllotoxin]	1.51 ± 0.37 µM	0.93 ± 0.84 µM	1.93 ± 1.67 µM	–	–	–	–
COc1cc(C2c3cc4c(cc3C(Sc3ncccc3C(=O)O)C3COC(=O)C23)OCO4)cc(OC)c1OC (stereo not drawn) [Compound 6, 4-S-(3-picolinate-2)-4-deoxy-podophyllotoxin]	1.71 ± 0.07 µM	0.83 ± 0.25 µM	2.65 ± 0.53 µM	–	–	–	–
COc1cc(C2c3cc4c(cc3C(Sc3cccc(C)n3)C3COC(=O)C23)OCO4)cc(OC)c1OC (stereo not drawn) [Compound 7, 4-S-(6-methyl-pyridin-2)-4-deoxy-podophyllotoxin]	0.9 ± 0.05 µM	1.12 ± 0.28 µM	3.51 ± 0.14 µM	–	–	–	–
COc1cc([C@@H]2c3cc4c(cc3[C@@H](O[C@@H]3O[C@@H]5CO[C@@H](C)O[C@H]5[C@H](O)[C@H]3O)[C@H]3COC(=O)[C@H]23)OCO4)cc(OC)c1O [etoposide, reference compound]	–	–	–	–	–	–	13.2 ± 1.65 µM
COc1cc(C2c3cc4c(cc3C(Sc3n[nH]c(N)n3)C3COC(=O)C23)OCO4)cc(OC)c1OC (stereo not drawn) [Compound 1, 4-S-(3-amino-1,2,4-triazole-5)-4-deoxy-podophyllotoxin]	2.86 ± 0.34 µM	5.76 ± 0.34 µM	0.83 ± 0.14 µM	–	–	–	–
COc1cc(C2c3cc4c(cc3C(Sc3nnc(NS(=O)(=O)c5ccc(C)cc5)s3)C3COC(=O)C23)OCO4)cc(OC)c1O (stereo not drawn) [Compound 34, 4-S-[2-N-(4-methyl-benzenesulfonamide-)-1,3,4-thiadiazole-5-]-4-deoxy-4′-demethylepipodophyllotoxin]	2.11 ± 0.34 µM	5.89 ± 0.74 µM	0.85 ± 0.43 µM	–	–	–	–
COc1cc(C2c3cc4c(cc3C(Sc3nc5ccccc5[nH]3)C3COC(=O)C23)OCO4)cc(OC)c1O (stereo not drawn) [Compound 30, 4-S-(benzimidazole-2)-4-deoxy-4′-demethylepipodophyllotoxin]	0.51 ± 0.13 µM	1.24 ± 0.27 µM	0.31 ± 0.16 µM	–	–	–	–
COc1ccc(S(=O)(=O)Nc2n[nH]c(SC3c4cc5c(cc4C(c4cc(OC)c(OC)c(OC)c4)C4C(=O)OCC34)OCO5)n2)cc1 (stereo not drawn) [Compound 16, 4-S-[3-N-(4-methoxy-benzenesulfonamide-)-1,2,4-triazole-5-]-4-deoxy-podophyllotoxin]	1.56 ± 0.05 µM	1.24 ± 0.33 µM	0.67 ± 0.05 µM	–	–	–	–
COc1cc(C2c3cc4c(cc3C(Sc3nc5ccccc5o3)C3COC(=O)C23)OCO4)cc(OC)c1O (stereo not drawn) [Compound 31, 4-S-(benzoxazole-2)-4-deoxy-4′-demethylepipodophyllotoxin]	0.13 ± 0.01 µM	1.46 ± 0.89 µM	1.36 ± 0.2 µM	–	–	–	–
4-S-(5-methyl-1,2,4-triazole-3)-4-deoxy-4′-demethylepipodophyllotoxin [Compound 20]	6.62 ± 0.35 µM	0.35 ± 0.37 µM	0.21 ± 0.35 µM	–	–	–	–
